pIC50: −log10 of the molar value.

The first assay deals with T1, ZAC (Homo sapiens, UniProt Q401N2).
T1 sequence (Q401N2 26-412): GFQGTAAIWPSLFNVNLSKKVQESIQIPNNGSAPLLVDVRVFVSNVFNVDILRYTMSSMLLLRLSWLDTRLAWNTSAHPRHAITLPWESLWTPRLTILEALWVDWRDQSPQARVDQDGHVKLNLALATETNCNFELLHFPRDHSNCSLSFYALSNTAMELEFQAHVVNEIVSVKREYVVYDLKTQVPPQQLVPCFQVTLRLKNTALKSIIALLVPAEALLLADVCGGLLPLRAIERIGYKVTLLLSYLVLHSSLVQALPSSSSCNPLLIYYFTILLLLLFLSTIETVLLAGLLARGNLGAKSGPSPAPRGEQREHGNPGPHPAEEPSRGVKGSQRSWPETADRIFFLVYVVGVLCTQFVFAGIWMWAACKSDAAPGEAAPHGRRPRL
Put plainly: TEVC recordings, Zn2+-evoked currents at ZAC expressed in Xenopus oocytes. The assay is classed as cell-based. To be noted: 1 mM Zn2+ as agonist, tested at three concentrations (0.3-3-30 μM or 1-10-100 μM). The method, then:
The cDNAs for the various WT and chimeric CLR subunits were linearized and subsequently transcribed and capped mMessage mMachine T7 RNA transcription kit (Ambion, Waltham, MA). Different amounts of cRNA mixtures were injected for ZAC (9.2–36.8 nL in a concentration of 0.05 μg/μL), […] nAChR (9.2–36.8 nL in a concentration of 0.1 μg/μL of each subunit in a ratio of 1:1), hα1 GlyR (9.2–36.8 nL in a concentration of 0.05 μg/μL), hα1β2γ2s GABAAR (9.2–36.8 nL in a concentration of 0.05 μg/μL of each subunit in a ratio of 1:1:3), m5-HT3AR (9.2–36.8 nL in a concentration of 0.05 μg/μL), m5-HT3A/ZAC (9.2–36.8 nL in a concentration of 0.207 μg/μL), and ZAC/hai-Gly (9.2–36.8 nL in a concentration of 0.206 μg/μL). Oocytes were incubated in a sterile modified Barth’s solution [88 mM NaCl, 1 mM KCl, 15 mM HEPES (pH 7.5), 2.4 mM NaHCO3, 0.41 mM CaCl2, 0.82 mM MgSO4, 0.3 mM Ca(NO3)2, 100 U/ml penicillin and 100 μg/ml strep-tomycin] at 18 °C for 2 days after injection.
On the day of experiment, all compound dilutions were prepared in a saline solution [115 mM NaCl, 2.5 mM KCl, 10 mM MOPS (pH 7.5), 1.8 mM CaCl2, 0.1 mM MgCl2] and pH adjusted to 7.5 (if needed). Oocytes were placed in a recording chamber continuously perfused with this saline solution, and the compounds were applied in the perfusate. Both voltage and current electrodes were agar-plugged with 3 M KCl with a resistance of 0.2–2.0 MΩ. Oocytes were voltage-clamped at −50 mV (unless otherwise stated) by a Gene Clamp 500B amplifier (Axon Instruments, Union City, CA), while current signals were digitized by a Digidata 1320. Currents were recorded using pCLAMP 10 (Molecular Devices, Sunnyvale, CA). The recordings were performed at room temperature.
In all recordings, the compounds or compound combinations were applied in the bath until the peak current decayed to a steady state (up to 30 sec at the most). […] The functional properties of the modulators at the CLRs were determined by pre-application of the modulator to the perfusate 30 sec and followed by co-application of the modulator and the agonist to the perfusate. In all recordings, washes of 1–5 min were executed between the applications to prevent receptor desensitization, the duration of these washes depending on the kinetics of the respective receptors and the “stickyness” of the respective compounds. […] For the selectivity and mode-of-action studies, the agonist concentrations used for different CLRs or chimeric CLRs were in the EC20–EC40 range (verified on the day of experiment), as this enabled us to investigate both for putative positive and negative receptor modulation exerted by TTFB (hα3β4 nAChR, 3 μM (S)-nicotine; m5-HT3AR, 2 μM 5-HT; hα1 GlyR, 100 μM glycine; hα1β2γ2S GABAAR, 30 μM GABA; m5-HT3A/ZAC, 0.3 μM 5-HT; ZAC/hɑ1-Gly, 2 μM Zn^2+).
Data analysis of the results from the TEVC recordings were performed using Clampfit software version 10.5 (Molecular Devices, Crawley, UK) and GraphPad Prism version 7.0c (GraphPad Software, Inc. La Jolla, CA). Data for the test compounds were normalized to either the maximal agonist-evoked current or to an EC20–EC50-mediated response elicited by the agonist on each oocyte (specified in each case). Unless otherwise stated, data for agonist-induced responses in the presence of the antagonists were extracted from the plateau (or steady-state) of the agonist-evoked current. Concentration-response and concentration-inhibition curves were fitted in GraphPad Prism by nonlinear regression using the equation for sigmoidal dose-response with variable slope. I-V relationships were analyzed by fitting the curves with a third order polynomial model. Each data point represents the mean ± S.E.M. value of recordings performed on at least five oocytes from at least two different batches.
For the molecule `Cc1cnc(NC(=O)c2cc(Br)ccc2Cl)s1` [2a], the “Antagonist activity at ZAC in SAR study (in words)” value (from here on “Antagonist activity at ZAC”) is “inactivity”.
Turning to `CC(C)(C)c1csc(NC(=O)c2cc(Br)ccc2Cl)n1` [2b], the “Antagonist activity at ZAC” value is “slightly more potent and efficacious ZAC inhibition than 1”.
As for `CCOC(=O)Cc1csc(NC(=O)c2cc(Br)ccc2Cl)n1` [2c], the “Antagonist activity at ZAC” value was “slightly more potent and efficacious ZAC inhibition than 1”.
Same read-out and setting: the result for `Cc1ccc(-c2csc(NC(=O)c3cc(Br)ccc3Cl)n2)cc1` [2d] reads “reduced substantially”.
On to `O=C(Nc1nc2ccccc2s1)c1cc(Br)ccc1Cl` [2e], for which the “Antagonist activity at ZAC” value is listed as “substantial loss of activity”.
`O=C(Nc1nnc(C2CCCCC2)s1)c1cc(Br)ccc1Cl` [2f]: the “Antagonist activity at ZAC” value is on record as “substantial loss of activity”.
For the molecule `CCc1nc(NC(=O)c2cccc(Br)c2)sc1C(=O)OC` [3a], the “Antagonist activity at ZAC” value is “inactive”.
For the molecule `CCOC(=O)c1sc(NC(=O)c2cccc(Br)c2)nc1C` [3b], the “Antagonist activity at ZAC” value is “inactive”.
Still for that read-out and setting: to `Cc1csc(NC(=O)c2cccc(Br)c2)n1` [3c] belongs “weak ZAC activity”.
On the same count and under the same terms, to `CC(C)(C)c1csc(NC(=O)c2cccc(Br)c2)n1` [3d] belongs “fairly potent”.
On the same count and under the same terms, to `O=C(Nc1nc(-c2ccc(Br)s2)cs1)c1cccc(Br)c1` [3e] belongs “eliminated ZAC activity completely”.
In the case of `O=C(Nc1ncc([N+](=O)[O-])s1)c1cccc(Br)c1` [3f], the “Antagonist activity at ZAC” value was “weaker antagonists”.
Take `Cc1nc(NC(=O)c2cccc(Br)c2)sc1C` [3g]: the “Antagonist activity at ZAC” value is reported as “considerably weaker antagonist”.
Regarding `CC(C)(C)c1nnc(NC(=O)c2cccc(Br)c2)s1` [3k], the “Antagonist activity at ZAC” value was “essentially eliminated ZAC activity”.
Regarding `COC(=O)c1sc(NC(=O)c2ccccc2C)nc1C` [4a], the “Antagonist activity at ZAC” value was “essentially inactive”.
As to `COC(=O)c1sc(NC(=O)c2ccc(C)cc2)nc1C` [4b], the “Antagonist activity at ZAC” value was “essentially inactive”.
In the case of `COC(=O)c1sc(NC(=O)c2cccc(I)c2)nc1C` [4c], the “Antagonist activity at ZAC” value is listed as “did not alter its antagonist activity substantially”.
On to `COC(=O)c1sc(NC(=O)c2cc(C)cc(C)c2)nc1C` [4d], for which the “Antagonist activity at ZAC” value is reported as “did not alter its antagonist activity substantially”.
In the case of `COC(=O)c1sc(NC(=O)c2cc([N+](=O)[O-])cc([N+](=O)[O-])c2)nc1C` [4e], the “Antagonist activity at ZAC” value is “completely devoid of antagonist activity”.
Regarding `COC(=O)c1sc(NC(=O)c2cc([N+](=O)[O-])ccc2Cl)nc1C` [4f], the “Antagonist activity at ZAC” value is “inactive”.
As to `CCOc1ccc(C(=O)Nc2nc(C)c(C(=O)OC)s2)cc1Br` [4g], the “Antagonist activity at ZAC” value was “inactive”.
For `COC(=O)c1sc(NC(=O)c2ccncc2)nc1C` [4h], the “Antagonist activity at ZAC” value was “inactive”.
For the molecule `CCOC(=O)c1sc(NC(=O)c2ccccc2Cl)nc1C` [4i], the “Antagonist activity at ZAC” value was “inactive”.
On to `CCOC(=O)c1sc(NC(=O)c2cc(Cl)cc(Cl)c2)nc1C` [4j], for which the “Antagonist activity at ZAC” value is “inactive”.
For `CCOC(=O)c1sc(NC(=O)c2cc(Cl)ccc2OC)nc1C` [4k], the “Antagonist activity at ZAC” value was “inactive”.
In the case of `CCOC(=O)c1sc(NC(=O)c2cc(OC)c(OC)c(OC)c2)nc1C` [4l], the “Antagonist activity at ZAC” value was “essentially inactive”.
In the case of `C=CCN(CC=C)S(=O)(=O)c1ccc(C(=O)Nc2nc(C)c(C(=O)OCC)s2)cc1` [4m], the “Antagonist activity at ZAC” value was “inactive”.
Turning to `CCOC(=O)c1sc(NC(=O)c2cccnc2)nc1C` [4n], the “Antagonist activity at ZAC” value is “inactive”.
On the same count and under the same terms, to `CCOC(=O)c1sc(NC(=O)c2ccco2)nc1C` [4o] belongs “inactive”.
With `CC(C)(C)c1csc(NC(=O)c2c(F)c(F)c(F)c(F)c2F)n1` [5b], the “Antagonist activity at ZAC” value is “considerably weaker ZAC antagonist”.
For the molecule `CN(C)c1cccc(C(=O)Nc2nc(C(C)(C)C)cs2)c1` [5f], the “Antagonist activity at ZAC” value is “roughly equipotent with 2b”.
`COc1ccc(Cl)cc1C(=O)Nc1nc(C(C)(C)C)cs1` [5g]: the “Antagonist activity at ZAC” value is “somewhat potent but apparent partial inhibition”.
Turning to `CC(C)(C)c1csc(NC(=O)c2cc(F)c(F)cc2Cl)n1` [5h], the “Antagonist activity at ZAC” value is “lower potency as ZAC antagonist than 2b”.
For the molecule `COc1cc(C(=O)Nc2nc(C(C)(C)C)cs2)cc(OC)c1OC` [5i], the “Antagonist activity at ZAC” value was “essentially inactive”.
The same measure, in the same setting: to `O=C(Nc1nccs1)c1cc(F)c(F)cc1Cl` [6a] belongs “inactivity”; to `Cc1cnc(NC(=O)c2cc(F)c(F)cc2Cl)s1` [6b], “inactivity”; to `CC(=O)c1sc(NC(=O)c2cc(F)c(F)cc2Cl)nc1C` [6c], “inactivity”.
With `CCOC(=O)Cc1csc(NC(=O)c2cc(Cl)cc(Cl)c2)n1` [6g], the “Antagonist activity at ZAC” value is “inactivity”.
On the same count and under the same terms, to `CN(C)c1cccc(C(=O)Nc2nc(C3CC3)cs2)c1` [6l] belongs “decreased antagonist potency”; to `CC(C)c1csc(NC(=O)c2cccc(Nc3ncccn3)c2)n1` [6m], “further reduced ZAC activity”.

Still in this assay, the particulars now being: Zn2+ (1 mM) as agonist, TEVC.
As to `CC(C)(C)c1csc(NC(=O)c2cc(Br)ccc2Cl)n1` [2b], the “Fitted inhibition range, Inhibition (%)” value stood at 88 ± 3% and the “Hill coefficient nH ± S.E.M.” value is given as −1.2 ± 0.12.
The corresponding values for `COC(=O)c1sc(NC(=O)c2cccc(I)c2)nc1C` [4c] are 78 ± 3% and −0.89 ± 0.06.

Staying with this assay, now noted: Zn2+ (1 mM) as agonist, TEVC, steady-state current; read-out: IC50.
Turning to `O=C(Nc1ncc([N+](=O)[O-])s1)c1cccc(Br)c1` [3f], the pIC50 – broadly, −log10 of the IC50, conventionally taken in molar units – is approximately 4.70.

Staying with this assay, now noted: Zn2+ (1 mM) as agonist, TEVC, steady-state current; read-out: pIC50 ± S.E.M. (converted).
Turning to `CC(C)(C)c1csc(NC(=O)c2cc(Br)ccc2Cl)n1` [2b], the IC50 was 1320 nM.
As for `COC(=O)c1sc(NC(=O)c2cccc(I)c2)nc1C` [4c], the IC50 is 1020 nM.

Still in this assay, the particulars now being: Zn2+ (1 mM), full concentration-inhibition curves.
As to `CC(C)(C)c1csc(NC(=O)c2cc(Br)ccc2Cl)n1` [2b], the “Extent of inhibition of Zn2+-induced responses (in words)” value is recorded as “completely”.
In the case of `COC(=O)c1sc(NC(=O)c2cccc(I)c2)nc1C` [4c], the “Extent of inhibition of Zn2+-induced responses (in words)” value is recorded as “completely”.

The values are drawn from PMC9979163, “Discovery and functional characterization of N-(thiazol-2-yl)-benzamide analogs as the first class of selective antagonists of the Zinc-Activated Channel (ZAC)” (Biochemical pharmacology, 2021).
